According to US12239645B2, “Targeted dosing for the treatment of complement mediated disorders” (Achillion Pharmaceuticals, Inc., priority 2018, dated 2025):
Converted amounts (≈) assume the structure as drawn. Where two headings read alike, the source gives them in different places.

Assays:
[1] = tested on: complement alternative pathway (AP) activity; assay: Steady-state / PK-PD modeling of AP inhibition versus plasma concentration; set-up: species or system human
Protocol: Based on the ex vivo AP inhibition assay, a steady state model was prepared comparing the % inhibition of Ap based on drug plasma concentration. […] Therefore, Compound 1 is shown to be potent while still having improved safety margins that may allow for better dosing flexibility.

[2] = tested on: complement alternative pathway (AP) activity; assay: MAD study: ex vivo serum AP hemolysis activity and PK-PD analysis; assay type: in vivo, human; details: for minimum AP activity following dosing: Days 7 and 14
Protocol: Ex vivo serum AP hemolysis assays were conducted in 96-well microtiter plates divided into two parts, one for hemolysis and the other for serum background color subtraction. Briefly, a suspension of rabbit red blood cells (RBCs) was centrifuged at 800×g at 4° C. for 3 minutes and the supernatant was removed to get rid of the RBC debris. The RBC cell pellet was re-suspended gently with pre-chilled gelatin veronal buffer (GVB0) containing 10 mM MgEGTA to a density of 5×10^8 cells/mL. Other controls including buffer, spontaneous rabbit RBC lysis, 100% RBC lysis (in water), and normal serum control were set up alongside the test samples as well. Serum was placed in a 37° C. water-bath until mostly thawed and immediately transferred to ice bath. 20% serum was prepared with GVB0-MgEGTA buffer and kept at ice bath before testing. Reactions were carried out in a 96 well plate by mixing 50 μl of 20% serum with equal volume of GVB0-MgEGTA buffer and then quickly adding 20 μl of RBC suspension. The plate was shaken on a microtiter plate shaker for 5 seconds and then incubated at 37° C. for 30 minutes. Halfway during the incubation period, the plate was shaken for another 5 seconds as described above. At the end of the incubation, the plate was centrifuged at 800×g at 4° C. for 3 minutes to pellet the un-lysed rabbit RBCs. 80 μl of supernatant was removed carefully from all wells and transferred to a clear flat-bottom microtiter plate for the measurement of optical absorbance at 405 nm (A405) in a Molecular Devices Spectramax Plus plate reader. AP hemolysis in each well was calculated relative to the activity of the NHS reference sample formulas as follows: Hemolysis (%)=((Hm−Bk)−(Sp−Bf))/((NH−BkNH)−(Sp−Bf))×100%
where Hm=A405 in the hemolysis well, Bk=A405 in the corresponding background well, Sp=mean A405 in the spontaneous hemolysis wells, Bf=mean A405 in the buffer alone wells, NH=mean A405 in the reference NHS wells, and BkNH=mean A405 in the corresponding background wells.
The PK-PD relationship was evaluated using time-matched plasma Compound 1 concentrations and serum AP inhibition values by non-linear regression with GraphPad Prism (La Jolla, CA) using the following two models: • 1. The simple Emax model to determine the 50% effective concentration (EC50): Y=E0+Emax×X/(EC50+X) where X=plasma Compound 1 concentration, Y=percent inhibition in the corresponding serum sample, E0=0% inhibition (pre-dose AP activity), and Emax=100% inhibition. • 2. The four-parameter sigmoidal model to determine EC50 and the 90% effective concentration (EC90): Y=E0+(Emax−E0)/(1+10^((Log EC50−X)×HillSlope)) where X, Y, E0, and Emax are defined as above (Emax model) and HillSlope=the slope factor or Hill slope. Pharmacodynamic and Pharmacokinetic Results AP Activity Measured with AP Hemolysis
A multiple ascending dose (MAD) study of Compound 1 with two additional single-dose cohorts was also completed. […] Secondary objectives included evaluation of the pharmacokinetic (PK) profile and the relationship between Compound 1 PK and pharmacodynamic (PD) characteristics, that is, the inhibition of complement alternative pathway (AP) activity (PK/PD). In the MAD study, multiple-dose pharmacokinetics and pharmacodynamics of Compound 1 were evaluated in four dose groups administered Compound 1 (40, 80, 120 and 200 mg BID) in the fasted state for 14-days (Table 3). Eight subjects received active drug in each group; eight subjects received placebo in the first dose group (40 mg) and two subjects received placebo in each of the other three dose groups. Two additional cohorts were administered Compound 1 at single doses of 240 mg (fasted subjects) and 120 mg (fed subjects) (Table 3). The two single-dose cohorts each comprised six subjects receiving active drug and two subjects receiving placebo. […]

[3] = 40 mg BID, Day 14, AP hemolysis
[4] = 40 mg BID, Days 7 and 14 Combined Analysis, AP hemolysis
[5] = 80 mg BID, Day 14, AP hemolysis
[6] = 80 mg BID, Days 7 and 14 Combined Analysis, AP hemolysis
[7] = 120 mg BID, Day 7, AP hemolysis
[8] = 120 mg BID, Day 14, AP hemolysis
[9] = 120 mg BID, Days 7 and 14 Combined Analysis, AP hemolysis
[10] = 120 mg and 200 mg BID, 14 days, FIG. 13
[11] = 200 mg BID, Day 7, AP hemolysis
[12] = 200 mg BID, Day 14, AP hemolysis
[13] = 200 mg BID, Days 7 and 14 Combined Analysis, AP hemolysis
[14] = Homo sapiens, sigmoidal model, multiple-dose cohorts, AP hemolysis

Structure (SMILES): CC(=O)c1nn(CC(=O)N2[C@H](C(=O)Nc3nc(Br)ccc3C)C[C@@]3(C)C[C@@H]23)c2ccc(-c3cnc(C)nc3)cc12 [Compound 1, (1R,3S,5R)-2-(2-(3-acetyl-5-(2-methylpyrimidin-5-yl)-1H-indazol-1-yl)acetyl)-N-(6-bromo-3-methylpyridin-2-yl)-5-methyl-2-azabicyclo[3.1.0]hexane-3-carboxamide]
- inhibition of AP activity ([1]; at Ctrough of 65 ng/mL to 95 ng/mL): greater than 85%
- AP inhibition ([1]; at Ctrough of about 88 ng/mL): > 90%
- AP inhibition ([1]; at Ctrough of about 67-88 ng/mL): greater than 90%
- EC90 (plasma concentration providing about 90% AP activity inhibition) ([1]; modeling): 0.067 to 0.088 µg/mL
- IC90 of AP activity (Ctrough for 90% inhibition) ([1]; steady-state modeling from SAD ex vivo AP inhibition, FIG. 10): about 67 ng/mL
- % AUEC0-12, Mean ([2]; 40 mg BID, Day 7, AP hemolysis): 49.9%
- DURATION0-12 (time with AP inhibition 90% or greater), Mean ([2]; 40 mg BID, Day 7, AP hemolysis): 2.0 h
- % AUEC0-12, Mean [2, 3]: 61.4%
- DURATION0-12 (time with AP inhibition 90% or greater), Mean [2, 3]: 2.6 h
- minimum AP activity following dosing ([2]; 40 mg BID): 4.00%
- % AUEC0-12, Mean [2, 4]: 55.6%
- DURATION0-12 (time with AP inhibition 90% or greater), Mean [2, 4]: 2.3 h
- % AUEC0-12, Mean ([2]; 80 mg BID, Day 7, AP hemolysis): 87.4%
- DURATION0-12 (time with AP inhibition 90% or greater), Mean ([2]; 80 mg BID, Day 7, AP hemolysis): 7.3 h
- % AUEC0-12, Mean [2, 5]: 87.7%
- DURATION0-12 (time with AP inhibition 90% or greater), Mean [2, 5]: 8.0 h
- % AUEC0-12, Mean [2, 6]: 87.6%
- DURATION0-12 (time with AP inhibition 90% or greater), Mean [2, 6]: 7.6 h
- mean AP activity ([2]; 120 mg BID, 0 h to 10 h on Day 7 and 0 h to 12 h on Day 14): below 10%
- % AUEC0-12, Mean [2, 7]: 97.5%
- DURATION0-12 (time with AP inhibition 90% or greater), Mean [2, 7]: 10.9 h
- % AUEC0-12, Mean [2, 8]: 98.8%
- DURATION0-12 (time with AP inhibition 90% or greater), Mean [2, 8]: 11.6 h
- % AUEC0-12, Mean [2, 9]: 98.2%
- DURATION0-12 (time with AP inhibition 90% or greater), Mean [2, 9]: 11.3 h
- average reduction in AP hemolysis [2, 10]: over 95%
- reduction in AP hemolysis for the duration of the study [2, 10]: over 90%
- serum AP hemolysis activity ([2]; 120 mg single dose fed, from 2 h through 6 h): ≤ 10%
- mean AP activity ([2]; 200 mg BID, 0 h to 12 h on Days 7 and 14): below 10%
- % AUEC0-12, Mean [2, 11]: 99.5%
- DURATION0-12 (time with AP inhibition 90% or greater), Mean [2, 11]: 11.9 h
- % AUEC0-12, Mean [2, 12]: 98.8%
- DURATION0-12 (time with AP inhibition 90% or greater), Mean [2, 12]: 11.5 h
- % AUEC0-12, Mean [2, 13]: 99.1%
- DURATION0-12 (time with AP inhibition 90% or greater), Mean [2, 13]: 11.7 h
- time mean inhibition persisted at 90% or greater post-dose ([2]; 240 mg single dose): at least 12 hours
- serum AP hemolysis activity ([2]; 240 mg single dose fasted, from 1.5 h through 16 h): ≤ 10%
- AP inhibition, all subjects ([2]; 240 mg single dose, within two hours of dosing): ≥ 90%
- minimum AP activity following dosing ([2]; Groups 2 through 4 (80, 120, 200 mg BID)): 0.00%
- inhibition at 40 mg ([2]; Homo sapiens, 0 h, 40 mg BID, Days 6 Through 14, AP hemolysis, read-out: AP Inhibition at 0 hr, Mean): 28.7%
- inhibition at 80 mg ([2]; Homo sapiens, 0 h, 80 mg BID, Days 6 Through 14, AP hemolysis, read-out: AP Inhibition at 0 hr, Mean): 74.1%
- inhibition at 120 mg ([2]; Homo sapiens, 0 h, 120 mg BID, Days 6 Through 14, AP hemolysis, read-out: AP Inhibition at 0 hr, Mean): 97.2%
- inhibition at 200 mg ([2]; Homo sapiens, 0 h, 200 mg BID, Days 6 Through 14, AP hemolysis, read-out: AP Inhibition at 0 hr, Mean): 97.6%
- inhibition at 40 mg ([2]; Homo sapiens, 40 mg BID, Day 7, AP hemolysis, read-out: AP Inhibition at 0 hr, Mean): 20%
- inhibition at 40 mg ([2]; Homo sapiens, 40 mg BID, Day 7, AP hemolysis, read-out: AP Inhibition at 12 hr, Mean): 17.5%
- inhibition at 40 mg ([2]; Homo sapiens, 40 mg BID, Day 14, AP hemolysis, read-out: AP Inhibition at 0 hr, Mean): 29.2%
- inhibition at 40 mg ([2]; Homo sapiens, 40 mg BID, Day 14, AP hemolysis, read-out: AP Inhibition at 12 hr, Mean): 29%
- inhibition at 80 mg ([2]; Homo sapiens, 80 mg BID, Day 7, AP hemolysis, read-out: AP Inhibition at 0 hr, Mean): 60.5%
- inhibition at 80 mg ([2]; Homo sapiens, 80 mg BID, Day 7, AP hemolysis, read-out: AP Inhibition at 12 hr, Mean): 61.5%
- inhibition at 80 mg ([2]; Homo sapiens, 80 mg BID, Day 14, AP hemolysis, read-out: AP Inhibition at 0 hr, Mean): 79%
- inhibition at 80 mg ([2]; Homo sapiens, 80 mg BID, Day 14, AP hemolysis, read-out: AP Inhibition at 12 hr, Mean): 52%
- inhibition at 120 mg ([2]; Homo sapiens, 120 mg BID, AP Hemolysis and AP Wieslab assays, read-out: AP inhibition, mean value at Ctrough): > 90%
- inhibition at 120 mg ([2]; Homo sapiens, 120 mg BID, Day 7, AP hemolysis, read-out: AP Inhibition at 0 hr, Mean): 91.8%
- inhibition at 120 mg ([2]; Homo sapiens, 120 mg BID, Day 7, AP hemolysis, read-out: AP Inhibition at 12 hr, Mean): 86%
- inhibition at 120 mg ([2]; Homo sapiens, 120 mg BID, Day 14, AP hemolysis, read-out: AP Inhibition at 0 hr, Mean): 99.7%
- inhibition at 120 mg ([2]; Homo sapiens, 120 mg BID, Day 14, AP hemolysis, read-out: AP Inhibition at 12 hr, Mean): 89.7%
- inhibition at 200 mg ([2]; Homo sapiens, 200 mg BID, AP Hemolysis and AP Wieslab assays, read-out: AP inhibition, mean value at Ctrough): > 95%
- inhibition at 200 mg ([2]; Homo sapiens, 200 mg BID, Day 7, AP hemolysis, read-out: AP Inhibition at 0 hr, Mean): 95%
- inhibition at 200 mg ([2]; Homo sapiens, 200 mg BID, Day 7, AP hemolysis, read-out: AP Inhibition at 12 hr, Mean): 97.3%
- inhibition at 200 mg ([2]; Homo sapiens, 200 mg BID, Day 14, AP hemolysis, read-out: AP Inhibition at 0 hr, Mean): 98.8%
- inhibition at 200 mg ([2]; Homo sapiens, 200 mg BID, Day 14, AP hemolysis, read-out: AP Inhibition at 12 hr, Mean): 92.8%
- inhibition at 40 mg ([2]; Homo sapiens, 12 h, 40 mg BID, Days 6 Through 14, AP hemolysis, read-out: AP Inhibition at 12 hr, Mean): 23.3%
- inhibition at 80 mg ([2]; Homo sapiens, 12 h, 80 mg BID, Days 6 Through 14, AP hemolysis, read-out: AP Inhibition at 12 hr, Mean): 56.8%
- inhibition at 120 mg ([2]; Homo sapiens, 12 h, 120 mg BID, Days 6 Through 14, AP hemolysis, read-out: AP Inhibition at 12 hr, Mean): 87.8%
- inhibition at 200 mg ([2]; Homo sapiens, 12 h, 200 mg BID, Days 6 Through 14, AP hemolysis, read-out: AP Inhibition at 12 hr, Mean): 95.1%
- inhibition at 0.08 µg/mL ([2]; Homo sapiens, at Ctrough of about 80 ng/mL, MAD, ex vivo AP activity assays): ~90%
- inhibition at 0.15 µg/mL ([2]; Homo sapiens, at Ctrough of about 150 ng/mL, MAD, ex vivo AP activity assays): > 95%
- inhibition at 120 mg ([2]; Homo sapiens, po, steady state Ctrough, oral 120 mg BID, read-out: mean alternative pathway inhibition): > 95%
- EC50 ([2]; Homo sapiens, simple Emax model, multiple-dose cohorts, AP hemolysis): 0.0191 µg/mL (≈ 0.0317 µM)
- IC90 ([2]; Homo sapiens, sigmoidal model, multiple ascending dose, ex-vivo AP hemolysis, FIG. 12, read-out: modeled IC90 drug plasma concentration (90% inhibition level)): 0.088 µg/mL (≈ 0.146 µM)
- EC50 [2, 14]: 0.0246 µg/mL (≈ 0.0408 µM)
- EC90 [2, 14]: 0.0881 µg/mL (≈ 0.146 µM)
- recovery of AP activity to approximately pre-dose levels ([2]; all doses, three days after the last dose): ≤ 17 days
- potency relative to Danicopan (IC90 plasma concentration) ([2]; sigmoidal model, FIG. 12): more than 2.5 times
- time of recovery of AP hemolysis activity to nearly pre-dose levels ([2]; single-dose cohorts 240 mg and 120 mg): ≤ 48 h
